Test results: the NIST ThermoML archive (doi:10.1021/acs.jced.9b00704)

Conditions: Liquid, Light diffraction method

CCCCCC(=O)OC [methyl hexanoate]
Conditions	speed of sound [m/s]
297.83 K, 110 kPa	1225.1
298.17 K, 10000 kPa	1274.4
298.35 K, 7010 kPa	1261.9
298.56 K, 5000 kPa	1252.4
298.76 K, 1010 kPa	1231.7
298.85 K, 3000 kPa	1240.3
306.48 K, 110 kPa	1182.9
308.58 K, 10010 kPa	1227.8
308.59 K, 1010 kPa	1186.9
308.9 K, 7000 kPa	1221.1
309.13 K, 5010 kPa	1210.5
309.19 K, 3010 kPa	1197.6
317.52 K, 10010 kPa	1181
317.6 K, 7010 kPa	1175.8
317.92 K, 100 kPa	1137
318.3 K, 1000 kPa	1142.6
318.41 K, 5010 kPa	1160.9
319.17 K, 3010 kPa	1152.2
327.21 K, 110 kPa	1090.2
327.38 K, 7010 kPa	1130.2
327.4 K, 10010 kPa	1143.2
327.58 K, 1010 kPa	1097.9
327.64 K, 5010 kPa	1120.6
327.9 K, 3000 kPa	1107.9
336.91 K, 100 kPa	1055.2
337.21 K, 5000 kPa	1091.3
337.21 K, 7010 kPa	1102.7
337.71 K, 10010 kPa	1111.9
337.95 K, 1000 kPa	1065.3
337.97 K, 3000 kPa	1078
346.56 K, 1010 kPa	1029.7
346.9 K, 100 kPa	1021.1
346.92 K, 10020 kPa	1081.3
347.43 K, 7000 kPa	1067.3
347.71 K, 3010 kPa	1040.3
347.75 K, 5010 kPa	1054.8
356.24 K, 3010 kPa	1011.9
356.68 K, 10010 kPa	1048.7
357.28 K, 100 kPa	970.4
357.33 K, 7010 kPa	1033.1
357.35 K, 5000 kPa	1022.1
357.85 K, 1010 kPa	989.8
366.38 K, 3010 kPa	970.6
366.68 K, 5000 kPa	980.4
366.89 K, 10000 kPa	1005.5
367.18 K, 7000 kPa	989.6
367.24 K, 1010 kPa	947.2
367.48 K, 100 kPa	938.2
377.25 K, 3000 kPa	927.9
377.7 K, 10000 kPa	974.3
377.72 K, 5000 kPa	939.5
377.88 K, 110 kPa	903.5
377.91 K, 1010 kPa	910.8
377.97 K, 7000 kPa	961
386.63 K, 3000 kPa	894.6
386.85 K, 10000 kPa	945.8
387.01 K, 1010 kPa	874.2
387.07 K, 7000 kPa	922
387.29 K, 5000 kPa	908.4
387.73 K, 100 kPa	866.5
396.7 K, 3000 kPa	862
397.25 K, 10010 kPa	909.9
397.54 K, 7020 kPa	891.4
397.64 K, 1010 kPa	842.1
397.83 K, 5000 kPa	875.5
398.6 K, 90 kPa	827.8
406.65 K, 1010 kPa	810.8
406.78 K, 3010 kPa	828.8
406.79 K, 7020 kPa	857.7
406.89 K, 10000 kPa	885.7
406.99 K, 5010 kPa	841.7
407.93 K, 100 kPa	799
416.99 K, 7010 kPa	835.1
417.08 K, 1010 kPa	775.9
417.12 K, 3000 kPa	796.9
417.21 K, 5010 kPa	808.2
417.21 K, 10020 kPa	864.4
417.52 K, 110 kPa	764.3
427.06 K, 1000 kPa	746
427.25 K, 3000 kPa	770.6
427.25 K, 5000 kPa	786.5
427.33 K, 7000 kPa	805.5
427.38 K, 10010 kPa	833.5
436.99 K, 1010 kPa	714.9
437.07 K, 5000 kPa	751.6
437.97 K, 6990 kPa	771.5
438.1 K, 9980 kPa	802.1
439.3 K, 3000 kPa	727.5
446.68 K, 3010 kPa	706.2
447 K, 4990 kPa	723
447.21 K, 10010 kPa	776
447.38 K, 7000 kPa	744.5
447.88 K, 1000 kPa	672.6
456.61 K, 3000 kPa	673.8
456.81 K, 9990 kPa	747
456.84 K, 5000 kPa	695.3
457.1 K, 7010 kPa	715.1
457.84 K, 990 kPa	642.8
466.22 K, 3010 kPa	642.9
466.28 K, 5000 kPa	663.1
466.3 K, 7000 kPa	689.7
466.3 K, 10010 kPa	720.4
466.46 K, 1010 kPa	613.5
478.01 K, 1010 kPa	570.1
478.28 K, 7000 kPa	646.3
478.28 K, 10000 kPa	677.8
478.34 K, 5010 kPa	623.4
478.43 K, 3010 kPa	596.3
487.58 K, 1000 kPa	535.4
487.67 K, 3010 kPa	565.4
487.67 K, 5000 kPa	595
487.69 K, 7000 kPa	617
487.71 K, 10000 kPa	653.5
497.17 K, 1010 kPa	499.6
497.36 K, 5000 kPa	568.5
497.38 K, 7000 kPa	591.6
497.43 K, 3010 kPa	534.1
497.44 K, 10000 kPa	629.4
506.49 K, 3000 kPa	503.9
506.88 K, 1000 kPa	464.6
506.97 K, 7010 kPa	563.3
507.02 K, 10020 kPa	599.2
507.11 K, 5010 kPa	535.1
516.99 K, 1010 kPa	426.2
517.52 K, 7010 kPa	531.6
517.56 K, 3000 kPa	468.7
517.6 K, 5010 kPa	504.9
517.63 K, 10010 kPa	571
528.29 K, 5000 kPa	472.6
528.46 K, 7000 kPa	504
528.65 K, 10010 kPa	547.3
529.52 K, 3000 kPa	426
538.04 K, 3000 kPa	396.8
538.26 K, 5010 kPa	439.9
538.26 K, 7000 kPa	472.1
538.35 K, 10000 kPa	516.1
547.56 K, 3000 kPa	362.7
547.96 K, 5000 kPa	406.1
548.18 K, 9980 kPa	498.8
548.26 K, 7000 kPa	446
557.68 K, 3000 kPa	321.9
557.89 K, 7010 kPa	423
558.07 K, 10000 kPa	472.6
558.34 K, 5000 kPa	378.3
565.69 K, 10010 kPa	446.4
566.56 K, 3010 kPa	285.3
567.58 K, 5000 kPa	346.5
567.72 K, 7010 kPa	390.1
575.39 K, 5000 kPa	317.9
576.35 K, 7000 kPa	365.2
576.45 K, 3010 kPa	241
577.04 K, 10010 kPa	420.8
586.48 K, 3000 kPa	197.5
586.99 K, 5010 kPa	275
587.76 K, 7000 kPa	334.6
588.07 K, 10030 kPa	393.2
